Measured values reported in publication PMC11992225, “Antibacterial compounds against non-growing and intracellular bacteria” (npj Antimicrobials and Resistance, 2025).
“And” between values parts separate entries of the source, which are not always exact repeats. Equal values may be shown once. Read-outs that look alike come from different tables or passages of the source.

What was measured:
[1] = tested on: non-growing S. aureus DSM2569; assay: Dose-dependent killing analysis (CFU spot-plating) of stationary-phase S. aureus; assay type: cell-based, Staphylococcus aureus; settings: for Δlog10(CFU/ml): S. aureus, average killing vs before treatment (9,097)
Method in brief: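 Survival was scored as CFU after overnight growth at 37 °C on LB agar, using spots from 10-fold PBS dilutions of treated cultures. Non-growing S. aureus DSM2569 had been exposed to compound for 24 h in 1:4 CA-MHB, pH 7.4. Three biological replicates were run.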

[2] = tested on: non-growing UPEC CFT073; assay: Dose-dependent killing analysis (CFU spot-plating) of stationary-phase UPEC; assay type: cell-based, Escherichia coli
Method in brief: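 Killing assessed by CFU counts: overnight 37 °C LB agar spot plates (10 μl drops of 10-fold PBS dilutions) scored at the lowest dilution with distinct colonies. Samples were compound-treated non-growing UPEC CFT073, 200 μl per well. Performed as three biological replicates.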

[3] = tested on: S. aureus DSM2569; assay: MIC, standard microdilution assay, growing S. aureus; assay type: cell-based, Staphylococcus aureus; settings: S. aureus
Method in brief: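 Medium: CA-MHB + 40 mM HEPES, pH 7.4 (UPEC, P. aeruginosa, S. aureus); LPM + 30 mM MES, pH 5.5 (UPEC, extra condition); TSB (S. flexneri). Microdilution format, n = 3.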

[4] = tested on: non-growing UPEC CFT073; assay: Dilution-regrowth assay (screen, hit validation, dose-response) on stationary-phase UPEC; assay type: cell-based, Escherichia coli; settings: for OD600 at 6hr, Mean: after dilution into drug-free medium; for EC50: E. coli, regrowth delay of non-growing bacteria, 24 h treatment, OD600 6 h after 2500-fold dilution, read-out: EC50
Method in brief: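 Regrowth (OD600 after 6 h, 37 °C) of diluted non-growing CFT073, following 24 h compound treatment of 24 h stationary cultures, defines activity relative to untreated control. Screen at 20 µM, validation at 20, 10, 5 µM (duplicates), dose–response in three biological replicates fitted by five-parameter logistic.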

## Bleomycin
[1]
  Log10(CFU/ml), Replicate #1: 6.114 Log10(CFU/ml) and 7.898 Log10(CFU/ml) and 8.934 Log10(CFU/ml) and 8.881 Log10(CFU/ml)
  Log10(CFU/ml), Replicate #2: 6.845 Log10(CFU/ml) and 8.447 Log10(CFU/ml) and 8.959 Log10(CFU/ml) and 9.255 Log10(CFU/ml)
  Log10(CFU/ml), Replicate #3: 6.863 Log10(CFU/ml) and 8.431 Log10(CFU/ml) and 8.778 Log10(CFU/ml) and 8.944 Log10(CFU/ml)
[1]; 0.1 μM
  Δlog10(CFU/ml): 0.070 log10(CFU/ml)
[1]; 0.5 μM
  Δlog10(CFU/ml): 0.206 log10(CFU/ml)
[1]; 2.5 μM
  Δlog10(CFU/ml): 0.838 log10(CFU/ml)
[1]; 10 μM
  Δlog10(CFU/ml): 2.490 log10(CFU/ml)
[2]; E. coli in 1:4 CA-MHB (pH 7.4), 0.25 μM, average killing vs before treatment (8.977)
  Δlog10(CFU/ml): 0.270 log10(CFU/ml)
[2]; E. coli in 1:4 CA-MHB (pH 7.4), 0.5 μM, average killing vs before treatment (8.977)
  Δlog10(CFU/ml): 0.232 log10(CFU/ml)
[2]; E. coli in 1:4 CA-MHB (pH 7.4), 1 μM, average killing vs before treatment (8.977)
  Δlog10(CFU/ml): 0.145 log10(CFU/ml)
[2]; E. coli in 1:4 CA-MHB (pH 7.4), 2.5 μM, average killing vs before treatment (8.977)
  Δlog10(CFU/ml): 0.654 log10(CFU/ml)
[2]; E. coli in 1:4 CA-MHB (pH 7.4), 5 μM, average killing vs before treatment (8.977)
  Δlog10(CFU/ml): 1.149 log10(CFU/ml)
[2]; E. coli in 1:4 CA-MHB (pH 7.4), 10 μM, average killing vs before treatment (8.977)
  Δlog10(CFU/ml): 1.686 log10(CFU/ml)
[2]; E. coli in LPM (pH 5.5), 0.25 μM, average killing vs before treatment (7.350)
  Δlog10(CFU/ml): 0.339 log10(CFU/ml)
[2]; E. coli in LPM (pH 5.5), 0.5 μM, average killing vs before treatment (7.350)
  Δlog10(CFU/ml): 0.181 log10(CFU/ml)
[2]; E. coli in LPM (pH 5.5), 1 μM, average killing vs before treatment (7.350)
  Δlog10(CFU/ml): 0.347 log10(CFU/ml)
[2]; E. coli in LPM (pH 5.5), 2.5 μM, average killing vs before treatment (7.350)
  Δlog10(CFU/ml): 0.457 log10(CFU/ml)
[2]; E. coli in LPM (pH 5.5), 5 μM, average killing vs before treatment (7.350)
  Δlog10(CFU/ml): 1.004 log10(CFU/ml)
[2]; E. coli in LPM (pH 5.5), 10 μM, average killing vs before treatment (7.350)
  Δlog10(CFU/ml): 1.335 log10(CFU/ml)
[2]; pH 5.5
  Log10(CFU/ml), Replicate #1: 5.301 Log10(CFU/ml) and 5.477 Log10(CFU/ml) and 6.204 Log10(CFU/ml) and 6.279 Log10(CFU/ml) and 6.491 Log10(CFU/ml) and 6.477 Log10(CFU/ml)
  Log10(CFU/ml), Replicate #2: 5.568 Log10(CFU/ml) and 6.114 Log10(CFU/ml) and 6.778 Log10(CFU/ml) (2×) and 6.903 Log10(CFU/ml) and 6.477 Log10(CFU/ml)
  Log10(CFU/ml), Replicate #3: 7.176 Log10(CFU/ml) and 7.447 Log10(CFU/ml) and 7.699 Log10(CFU/ml) and 7.954 Log10(CFU/ml) and 8.114 Log10(CFU/ml) and 8.079 Log10(CFU/ml)
[2]; pH 7.4
  Log10(CFU/ml), Replicate #1: 7.903 Log10(CFU/ml) and 8.362 Log10(CFU/ml) and 8.903 Log10(CFU/ml) and 9.462 Log10(CFU/ml) and 9.362 Log10(CFU/ml) and 9.114 Log10(CFU/ml)
  Log10(CFU/ml), Replicate #2: 6.556 Log10(CFU/ml) and 7.279 Log10(CFU/ml) and 7.954 Log10(CFU/ml) and 8.778 Log10(CFU/ml) and 8.699 Log10(CFU/ml) and 8.301 Log10(CFU/ml)
  Log10(CFU/ml), Replicate #3: 7.415 Log10(CFU/ml) and 7.845 Log10(CFU/ml) and 8.114 Log10(CFU/ml) and 8.255 Log10(CFU/ml) and 8.176 Log10(CFU/ml)
[3]; 1:4 diluted CA-MHB pH 7.4
  MIC (μM) 1:4 CA-MHB: 3.125 µM
[3]; CA-MHB pH 7.4, read-out: MIC (μM) CA-MHB
  MIC: 12.5 µM
[4]; E. coli in 1:4 CA-MHB (pH 7.4), 0.25 μM
  OD600 at 6hr, Mean: 0.585
[4]; E. coli in 1:4 CA-MHB (pH 7.4), 0.5 μM
  OD600 at 6hr, Mean: 0.575
[4]; E. coli in 1:4 CA-MHB (pH 7.4), 1 μM
  OD600 at 6hr, Mean: 0.327
[4]; E. coli in 1:4 CA-MHB (pH 7.4), 2.5 μM
  OD600 at 6hr, Mean: 0.130
[4]; E. coli in 1:4 CA-MHB (pH 7.4), 5 μM
  OD600 at 6hr, Mean: 0.073
[4]; E. coli in 1:4 CA-MHB (pH 7.4), 10 μM
  OD600 at 6hr, Mean: 0.067
[4]; E. coli in 1:4 CA-MHB (pH 7.4), 30 μM
  OD600 at 6hr, Mean: 0.076
[4]; E. coli in LPM (pH 5.5), 0.25 μM
  OD600 at 6hr, Mean: 0.600
[4]; E. coli in LPM (pH 5.5), 0.5 μM
  OD600 at 6hr, Mean: 0.583
[4]; E. coli in LPM (pH 5.5), 1 μM
  OD600 at 6hr, Mean: 0.569
[4]; E. coli in LPM (pH 5.5), 2.5 μM
  OD600 at 6hr, Mean: 0.559
[4]; E. coli in LPM (pH 5.5), 5 μM
  OD600 at 6hr, Mean: 0.513
[4]; E. coli in LPM (pH 5.5), 10 μM
  OD600 at 6hr, Mean: 0.348
[4]; E. coli in LPM (pH 5.5), 30 μM
  OD600 at 6hr, Mean: 0.169
[4]; LPM pH 5.5
  EC50: 9.49 µM
[4]; pH 7.4, 1:4 CA-MHB
  EC50: 0.987 µM
